One assay has as its target EIF2AK1 (Homo sapiens, UniProt Q9BQI3). As to the kind of experiment: biochemical. Further details: KINOMEscan scanMAX competition binding, DNA-tagged kinases, qPCR read-out, percent control at 300 nM. The following applies: read-out: Percent control / Acalabrutinib.
A further assay has as its target T1, JNK3 (Homo sapiens, UniProt P53779).
T1 construct: gene MAPK10
The assay can be described thus: biochemical. Further details: KINOMEscan scanMAX competition binding, DNA-tagged kinases, qPCR read-out, percent control at 300 nM. Conditions: read-out: Percent control / Acalabrutinib.

The target of a further assay is TGFBR1 (Homo sapiens, UniProt P36897). As to the kind of experiment: biochemical. Also on record: KINOMEscan scanMAX competition binding, DNA-tagged kinases, qPCR read-out, percent control at 300 nM. The following applies: read-out: Percent control / Acalabrutinib.
The target of another assay is DAPK3 (Homo sapiens, UniProt O43293). The assay can be described thus: biochemical. Further details: KINOMEscan scanMAX competition binding, DNA-tagged kinases, qPCR read-out, percent control at 300 nM. The following applies: read-out: Percent control / Ibrutinib.
A further assay has as its target EGFR(L861Q) (Homo sapiens, UniProt P00533, L861Q). The assay can be described thus: biochemical. Further details: KINOMEscan scanMAX competition binding, DNA-tagged kinases, qPCR read-out, percent control at 300 nM. Conditions: read-out: Percent control / Tirabrutinib.
For another assay, the target named is EGFR(G719S) (Homo sapiens, UniProt P00533, G719S). The assay can be described thus: biochemical. Also on record: KINOMEscan scanMAX competition binding, DNA-tagged kinases, qPCR read-out, percent control at 300 nM. Conditions: read-out: Percent control / Tirabrutinib.
The test system of another assay is TMD8 xenograft tumor. The assay can be described thus: Gene expression microarray analysis of TMD8 xenograft tumors.
Another assay deals with T-cells in human PBMC. As to the kind of experiment: PBMC stimulation assay, anti-CD3/CD28-stimulated T-cell activation (CD69). Type of assay: cell-based. The following applies: 16 h, up to the highest concentration of 10 μM. As to the method:
After culturing, the stimulated cells were stained with fluorescently labeled CD3, CD20, and CD69 antibodies. B-cells (identified by gating CD20-positive and CD3-negative cells) and T-cells (identified by gating CD3-positive and CD20-negative cells) were analyzed by flow cytometry to monitor the expression of CD69. […] GraphPad Prism version 5.04 (GraphPad Software, Inc., San Diego, CA, USA) and its base settings were used for initial values and convergence conditions.

For another assay, the target named is T2, TEC (Homo sapiens, UniProt P42680).
T2 sequence (P42680 1-631): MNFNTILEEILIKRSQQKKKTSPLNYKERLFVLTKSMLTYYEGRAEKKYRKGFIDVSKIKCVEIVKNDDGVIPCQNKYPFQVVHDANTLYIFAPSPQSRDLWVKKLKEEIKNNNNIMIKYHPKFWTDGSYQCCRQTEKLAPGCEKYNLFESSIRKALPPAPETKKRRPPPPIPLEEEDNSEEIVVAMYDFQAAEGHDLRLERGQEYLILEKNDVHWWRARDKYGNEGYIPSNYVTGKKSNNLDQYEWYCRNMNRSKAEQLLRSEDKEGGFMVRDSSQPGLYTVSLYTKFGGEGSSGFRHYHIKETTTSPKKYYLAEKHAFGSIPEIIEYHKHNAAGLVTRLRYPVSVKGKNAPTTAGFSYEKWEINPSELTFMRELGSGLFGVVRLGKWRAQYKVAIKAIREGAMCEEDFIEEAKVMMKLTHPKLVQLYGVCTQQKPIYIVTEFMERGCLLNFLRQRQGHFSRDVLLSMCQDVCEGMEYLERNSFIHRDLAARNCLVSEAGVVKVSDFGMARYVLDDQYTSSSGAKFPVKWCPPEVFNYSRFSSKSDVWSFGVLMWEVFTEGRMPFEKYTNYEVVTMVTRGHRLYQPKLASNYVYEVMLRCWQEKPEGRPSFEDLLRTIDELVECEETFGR
The assay can be described thus: LanthaScreen Eu kinase binding assay. Also on record: purchased Thermo Fisher Scientific (Invitrogen LanthaScreen service). The following applies: 60 min preincubation. The procedure:
In all the assays, each test compound was preincubated with peptide/kinase mixture or kinase/antibody mixture for 60 min at room temperature before adding the ATP solution or AlexaFluor labeled Tracer to initiate the 60-min incubation of the reactants.

In a further assay the target is ACVR1 (Homo sapiens, UniProt Q04771). As to the kind of experiment: biochemical. Further details: KINOMEscan scanMAX competition binding, DNA-tagged kinases, qPCR read-out, percent control at 300 nM. The following applies: read-out: Percent control / Zanubrutinib.
The target of a further assay is T3, CDK4-cyclinD1 (Homo sapiens, UniProt P11802).
T3 construct: cyclinD1
The assay can be described thus: biochemical. Also on record: KINOMEscan scanMAX competition binding, DNA-tagged kinases, qPCR read-out, percent control at 300 nM. The following applies: read-out: Percent control / Zanubrutinib.

For a further assay, the target named is VRK2 (Homo sapiens, UniProt Q86Y07). As to the kind of experiment: biochemical. Further details: KINOMEscan scanMAX competition binding, DNA-tagged kinases, qPCR read-out, percent control at 300 nM. Conditions: read-out: Percent control / Zanubrutinib.
The next assay deals with AKT1 (Homo sapiens, UniProt P31749). As to the kind of experiment: biochemical. Further details: KINOMEscan scanMAX competition binding, DNA-tagged kinases, qPCR read-out, percent control at 300 nM. Conditions: read-out: Percent control / Zanubrutinib.
Another assay addresses EPHA5 (Homo sapiens, UniProt P54756). As to the kind of experiment: biochemical. The following applies: read-out: Percent control / Zanubrutinib. Further details: KINOMEscan scanMAX competition binding, DNA-tagged kinases, qPCR read-out, percent control at 300 nM.
The target of a further assay is NEK6 (Homo sapiens, UniProt Q9HC98). The assay can be described thus: biochemical. Conditions: read-out: Percent control / Zanubrutinib. Also on record: KINOMEscan scanMAX competition binding, DNA-tagged kinases, qPCR read-out, percent control at 300 nM.
Another assay has as its target PAK2 (Homo sapiens, UniProt Q13177). As to the kind of experiment: biochemical. Further details: KINOMEscan scanMAX competition binding, DNA-tagged kinases, qPCR read-out, percent control at 300 nM. Conditions: read-out: Percent control / Zanubrutinib.
The next assay deals with RIOK2 (Homo sapiens, UniProt Q9BVS4). The assay can be described thus: biochemical. Also on record: KINOMEscan scanMAX competition binding, DNA-tagged kinases, qPCR read-out, percent control at 300 nM. The following applies: read-out: Percent control / Zanubrutinib.

This is an account of results in article PMC10004634 (PLOS ONE, 2023).

Chain of ACVR1 (Q04771 whole entry): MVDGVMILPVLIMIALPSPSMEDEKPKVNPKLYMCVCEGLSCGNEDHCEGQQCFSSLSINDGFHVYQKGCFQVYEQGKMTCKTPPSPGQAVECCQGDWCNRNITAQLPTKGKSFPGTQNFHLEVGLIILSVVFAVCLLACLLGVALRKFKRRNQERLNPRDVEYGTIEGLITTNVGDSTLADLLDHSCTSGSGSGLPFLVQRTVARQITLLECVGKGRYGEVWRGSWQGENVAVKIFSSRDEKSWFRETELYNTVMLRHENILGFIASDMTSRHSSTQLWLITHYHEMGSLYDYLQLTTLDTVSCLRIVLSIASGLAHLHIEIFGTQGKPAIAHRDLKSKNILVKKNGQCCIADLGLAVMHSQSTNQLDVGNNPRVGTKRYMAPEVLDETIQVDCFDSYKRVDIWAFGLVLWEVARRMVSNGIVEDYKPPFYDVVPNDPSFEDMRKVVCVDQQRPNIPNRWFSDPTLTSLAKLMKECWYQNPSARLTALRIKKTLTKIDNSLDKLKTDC
T1 sequence (P53779 whole entry): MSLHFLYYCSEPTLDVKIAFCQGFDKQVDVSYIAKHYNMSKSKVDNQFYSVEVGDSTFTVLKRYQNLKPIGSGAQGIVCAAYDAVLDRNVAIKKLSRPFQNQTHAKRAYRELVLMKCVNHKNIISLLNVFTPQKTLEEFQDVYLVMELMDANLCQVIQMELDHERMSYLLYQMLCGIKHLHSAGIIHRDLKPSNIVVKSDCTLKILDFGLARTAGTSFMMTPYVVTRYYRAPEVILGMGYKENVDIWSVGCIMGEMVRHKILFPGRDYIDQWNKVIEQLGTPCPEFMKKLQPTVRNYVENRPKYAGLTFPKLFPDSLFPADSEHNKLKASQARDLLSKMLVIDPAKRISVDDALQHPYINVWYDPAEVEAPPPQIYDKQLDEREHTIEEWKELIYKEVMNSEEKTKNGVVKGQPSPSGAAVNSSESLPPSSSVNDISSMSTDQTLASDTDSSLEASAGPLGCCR
Chain of RIOK2 (Q9BVS4 whole entry): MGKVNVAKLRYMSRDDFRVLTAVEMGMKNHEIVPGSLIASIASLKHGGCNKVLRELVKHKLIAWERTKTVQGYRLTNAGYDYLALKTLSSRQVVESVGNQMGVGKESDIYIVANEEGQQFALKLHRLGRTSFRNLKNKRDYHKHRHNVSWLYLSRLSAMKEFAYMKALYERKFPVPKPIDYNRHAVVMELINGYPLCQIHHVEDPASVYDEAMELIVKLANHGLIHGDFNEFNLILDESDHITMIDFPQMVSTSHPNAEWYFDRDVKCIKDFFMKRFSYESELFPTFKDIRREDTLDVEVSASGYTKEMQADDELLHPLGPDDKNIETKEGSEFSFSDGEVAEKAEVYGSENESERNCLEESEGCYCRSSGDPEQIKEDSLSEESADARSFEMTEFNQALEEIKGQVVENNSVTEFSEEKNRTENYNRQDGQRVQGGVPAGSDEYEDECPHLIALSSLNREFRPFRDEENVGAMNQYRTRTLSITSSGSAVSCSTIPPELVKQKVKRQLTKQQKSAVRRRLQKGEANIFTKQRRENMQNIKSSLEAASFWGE
Chain of NEK6 (Q9HC98 whole entry): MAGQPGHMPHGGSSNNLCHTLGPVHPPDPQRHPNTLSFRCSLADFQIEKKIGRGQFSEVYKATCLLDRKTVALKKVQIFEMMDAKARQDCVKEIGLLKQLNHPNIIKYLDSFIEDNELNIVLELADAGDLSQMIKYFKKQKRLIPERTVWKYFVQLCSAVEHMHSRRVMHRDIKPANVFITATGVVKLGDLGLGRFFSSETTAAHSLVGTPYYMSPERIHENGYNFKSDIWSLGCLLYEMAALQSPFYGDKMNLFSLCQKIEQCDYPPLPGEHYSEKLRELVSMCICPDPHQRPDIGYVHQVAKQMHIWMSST
Chain of DAPK3 (O43293 whole entry): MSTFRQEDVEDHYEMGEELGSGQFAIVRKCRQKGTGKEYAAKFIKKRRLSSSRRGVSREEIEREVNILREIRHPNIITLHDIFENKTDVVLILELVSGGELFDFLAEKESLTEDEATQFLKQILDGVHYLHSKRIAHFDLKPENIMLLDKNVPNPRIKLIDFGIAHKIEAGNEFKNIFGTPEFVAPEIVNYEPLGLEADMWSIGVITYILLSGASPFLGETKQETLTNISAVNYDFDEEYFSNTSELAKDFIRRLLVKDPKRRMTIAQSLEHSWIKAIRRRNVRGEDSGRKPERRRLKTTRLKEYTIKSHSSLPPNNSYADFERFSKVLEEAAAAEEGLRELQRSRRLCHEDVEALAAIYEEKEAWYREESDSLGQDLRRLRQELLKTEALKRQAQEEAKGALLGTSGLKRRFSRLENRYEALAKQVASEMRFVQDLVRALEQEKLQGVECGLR
Chain of EPHA5 (P54756 whole entry): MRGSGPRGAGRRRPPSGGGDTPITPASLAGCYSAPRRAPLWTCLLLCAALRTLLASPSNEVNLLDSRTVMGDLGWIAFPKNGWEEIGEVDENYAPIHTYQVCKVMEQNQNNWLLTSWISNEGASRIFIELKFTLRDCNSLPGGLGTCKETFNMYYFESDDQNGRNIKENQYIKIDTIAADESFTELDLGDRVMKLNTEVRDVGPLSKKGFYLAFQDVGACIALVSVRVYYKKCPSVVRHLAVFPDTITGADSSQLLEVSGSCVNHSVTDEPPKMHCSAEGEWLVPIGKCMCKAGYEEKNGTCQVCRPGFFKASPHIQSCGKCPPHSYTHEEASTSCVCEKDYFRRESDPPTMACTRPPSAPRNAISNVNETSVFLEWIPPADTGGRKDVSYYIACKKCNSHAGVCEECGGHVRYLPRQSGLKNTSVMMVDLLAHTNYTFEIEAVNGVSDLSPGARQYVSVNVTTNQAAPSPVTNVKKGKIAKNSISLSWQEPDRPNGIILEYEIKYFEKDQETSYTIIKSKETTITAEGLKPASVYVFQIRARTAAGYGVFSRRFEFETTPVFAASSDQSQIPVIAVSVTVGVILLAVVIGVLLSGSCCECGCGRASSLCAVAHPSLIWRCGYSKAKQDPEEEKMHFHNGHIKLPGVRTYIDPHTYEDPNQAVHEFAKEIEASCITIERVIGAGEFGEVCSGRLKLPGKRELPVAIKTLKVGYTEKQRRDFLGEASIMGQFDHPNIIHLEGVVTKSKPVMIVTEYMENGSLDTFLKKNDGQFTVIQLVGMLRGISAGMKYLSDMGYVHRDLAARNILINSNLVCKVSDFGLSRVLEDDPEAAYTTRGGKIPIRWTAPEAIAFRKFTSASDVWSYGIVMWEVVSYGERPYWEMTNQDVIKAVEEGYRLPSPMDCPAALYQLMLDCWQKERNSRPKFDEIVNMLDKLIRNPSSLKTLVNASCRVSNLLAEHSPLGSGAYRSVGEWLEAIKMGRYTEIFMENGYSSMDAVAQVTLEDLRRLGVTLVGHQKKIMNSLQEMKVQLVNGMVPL
T3 sequence (P11802 whole entry): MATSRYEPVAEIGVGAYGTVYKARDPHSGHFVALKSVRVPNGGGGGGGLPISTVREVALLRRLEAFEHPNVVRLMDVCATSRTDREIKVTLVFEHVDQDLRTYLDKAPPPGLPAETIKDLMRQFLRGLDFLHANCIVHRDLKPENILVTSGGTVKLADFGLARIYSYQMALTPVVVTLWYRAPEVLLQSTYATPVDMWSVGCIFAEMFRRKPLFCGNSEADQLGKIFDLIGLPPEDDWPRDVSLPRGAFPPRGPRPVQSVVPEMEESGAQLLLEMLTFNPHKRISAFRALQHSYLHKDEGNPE
T3 sequence (P24385 whole entry partner): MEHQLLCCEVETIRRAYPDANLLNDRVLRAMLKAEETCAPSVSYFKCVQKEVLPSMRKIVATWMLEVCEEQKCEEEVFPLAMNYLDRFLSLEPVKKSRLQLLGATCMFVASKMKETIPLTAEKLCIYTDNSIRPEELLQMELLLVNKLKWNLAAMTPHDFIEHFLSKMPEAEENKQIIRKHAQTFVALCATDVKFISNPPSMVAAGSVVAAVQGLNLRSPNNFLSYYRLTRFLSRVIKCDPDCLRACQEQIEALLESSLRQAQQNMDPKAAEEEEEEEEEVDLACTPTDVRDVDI
Chain of PAK2 (Q13177 whole entry): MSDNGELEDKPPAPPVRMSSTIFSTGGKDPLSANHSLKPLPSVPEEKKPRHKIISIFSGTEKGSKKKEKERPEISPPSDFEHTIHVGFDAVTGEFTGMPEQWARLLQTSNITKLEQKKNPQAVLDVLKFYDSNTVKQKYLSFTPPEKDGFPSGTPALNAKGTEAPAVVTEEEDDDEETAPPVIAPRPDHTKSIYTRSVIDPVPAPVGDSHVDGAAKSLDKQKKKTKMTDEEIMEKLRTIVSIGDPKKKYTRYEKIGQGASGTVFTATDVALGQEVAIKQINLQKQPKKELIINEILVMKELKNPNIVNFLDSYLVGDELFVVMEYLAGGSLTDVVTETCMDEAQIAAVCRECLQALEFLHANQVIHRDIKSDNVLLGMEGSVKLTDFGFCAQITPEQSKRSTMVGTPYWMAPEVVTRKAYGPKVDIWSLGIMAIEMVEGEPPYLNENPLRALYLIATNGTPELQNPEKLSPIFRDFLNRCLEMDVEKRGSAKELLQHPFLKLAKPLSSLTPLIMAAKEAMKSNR
Chain of VRK2 (Q86Y07 whole entry): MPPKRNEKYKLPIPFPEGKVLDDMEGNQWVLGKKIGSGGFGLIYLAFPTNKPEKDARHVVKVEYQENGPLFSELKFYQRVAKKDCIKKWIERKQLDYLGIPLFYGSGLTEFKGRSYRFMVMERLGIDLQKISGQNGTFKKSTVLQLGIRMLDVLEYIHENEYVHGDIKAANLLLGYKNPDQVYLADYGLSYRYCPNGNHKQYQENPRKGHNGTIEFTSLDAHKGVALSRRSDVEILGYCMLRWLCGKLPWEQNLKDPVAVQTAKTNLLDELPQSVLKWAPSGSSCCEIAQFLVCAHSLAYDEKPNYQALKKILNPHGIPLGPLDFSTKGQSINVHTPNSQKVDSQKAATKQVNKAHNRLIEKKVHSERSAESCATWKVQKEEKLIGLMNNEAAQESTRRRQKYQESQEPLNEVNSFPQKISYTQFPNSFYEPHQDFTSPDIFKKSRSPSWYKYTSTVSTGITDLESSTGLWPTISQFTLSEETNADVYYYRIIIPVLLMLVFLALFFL
Procedure for TMD8 xenograft tumor: The TMD8 xenograft model was also used for microarray analysis. […] After 21 days of drug administration and 24 h after the final dose, the mice underwent laparotomy under isoflurane anesthesia and were sacrificed by exsanguination. Tumors were collected and quickly frozen with liquid nitrogen. RNA extraction and gene expression microarray analysis were performed at LSI Medience Corporation (Tokyo, Japan) using the miRNeasy® mini kit (Qiagen, Hilden, Germany) and the Low Input Quick Amp Labeling Kit (Agilent Technologies, Santa Clara, CA, USA) according to the manufacturers’ instructions. The DNA microarray results were processed using Expressionist Analyst (GeneData, Basel, Switzerland) and Excel.

Take `CC#CC(=O)N1CCC[C@H]1c1nc(-c2ccc(C(=O)Nc3ccccn3)cc2)c2c(N)nccn12` [Acalabrutinib]: the figures for the remaining binding at 0.3 µM at EIF2AK1, at JNK3 and at TGFBR1 were 85%, 94% and 96%, respectively.

As to `C=CC(=O)N1CCC[C@@H](n2nc(-c3ccc(Oc4ccccc4)cc3)c3c(N)ncnc32)C1` [Ibrutinib], at DAPK3, the remaining binding at 0.3 µM worked out at 92%.

Consider `CC#CC(=O)N1CC[C@@H](n2c(=O)n(-c3ccc(Oc4ccccc4)cc3)c3c(N)ncnc32)C1` [Tirabrutinib], for which the remaining binding at 0.3 µM on EGFR(L861Q) was 86%; on EGFR(G719S), 85%. Besides, in the assay on TMD8 xenograft tumor (10 mg/kg BID 21 days vs vehicle, fold change <0.5, P < 0.01), the “number of downregulated probes” value worked out at 575. Further, the “number of upregulated probes” value in the assay with TMD8 xenograft tumor (10 mg/kg BID 21 days vs vehicle, fold change >2, P < 0.01) came to 549. The PRDM1 expression entry with TMD8 xenograft tumor (TMD8 xenograft, tirabrutinib vs vehicle) was “repressed”. Also, the “inhibition of anti-CD3/CD28-stimulated T-cell activation (CD69)” value in the assay with T-cells in human PBMC is given as “did not inhibit”.

The molecule `C=CC(=O)N1CCC([C@@H]2CCNc3c(C(N)=O)c(-c4ccc(Oc5ccccc5)cc4)nn32)CC1` [Zanubrutinib] displayed a half-maximal inhibitory concentration (IC50) on TEC of 4.47 nM. For the same molecule, the remaining binding at 0.3 µM was 100% on ACVR1; 80% on CDK4-cyclinD1; 97% on VRK2; 100% on AKT1; 97% on EPHA5; 88% at NEK6. Also, the remaining binding at 0.3 µM at PAK2 amounted to 83%; at RIOK2, 94%.
